Experimental data taken from ChEMBL document CHEMBL4390659, “Molecular hybridization approach for phenothiazine incorporated 1,2,3-triazole hybrids as promising antimicrobial agents: Design, synthesis, molecular docking and in silico ADME studies” (Eur J Med Chem, 2019).
In brackets after ≈: the same amount, converted by molar mass.

Columns and labels:
[1] = tested on: Vero; test: Cytotoxicity against African green monkey Vero cells assessed as reduction in cell viability incubated for 72 hrs by MTT assay; assay type: cell-based; conditions: Chlorocebus sabaeus
[2] = tested on: Pseudomonas aeruginosa; test: Antibacterial activity against Pseudomonas aeruginosa incubated for 24 hrs by agar dilution method; assay type: functional
[3] = tested on: Mycobacterium tuberculosis; test: Potency index, ratio of ciprofloxacin MIC to test compound MIC against Mycobacterium tuberculosis H37Rv ATCC 27294; assay type: functional
[4] = tested on: Staphylococcus aureus; test: Antibacterial activity against Staphylococcus aureus incubated for 24 hrs by agar dilution method; assay type: functional
[5] = tested on: Mycobacterium tuberculosis; test: Potency index, ratio of pyrazinamide MIC to test compound MIC against Mycobacterium tuberculosis H37Rv ATCC 27294; assay type: functional
[6] = tested on: Mycobacterium tuberculosis; test: Potency index, ratio of streptomycin MIC to test compound MIC against Mycobacterium tuberculosis H37Rv ATCC 27294; assay type: functional
[7] = Cytotoxicity against African green monkey Vero cells assessed as cell growth inhibition at 6.25 ug/ml incubated for 72 hrs by MTT assay relative to control; assay type: cell-based; conditions: chlorocebus sabaeus, read-out: GI
[8] = tested on: Escherichia coli; test: Antibacterial activity against Escherichia coli incubated for 24 hrs by agar dilution method; assay type: functional
[9] = tested on: Mycobacterium tuberculosis; test: Antibacterial activity against Mycobacterium tuberculosis H37Rv ATCC 27294 assessed as reduction in mycobacterial growth incubated for 5 days by MABA method; assay type: functional; conditions: H37Rv ATCC 27294, 120 h
[10] = Selectivity index, ratio of IC50 for African green monkey Vero cells to MIC for Mycobacterium tuberculosis H37Rv ATCC 27294; assay type: toxicity; conditions: read-out: Selectivity Index
[11] = tested on: Mycobacterium tuberculosis; test: Antibacterial activity against Mycobacterium tuberculosis H37Rv infected in Swiss albino mouse assessed as log reduction in bacterial burden in lungs at 26 mg/kg, po administered via gavage starting from 6 weeks post infection measured after 3 to 4 weeks co-treated with isoniazid; assay type: functional
[12] = tested on: Mycobacterium tuberculosis; test: Antibacterial activity against Mycobacterium tuberculosis H37Rv infected in Swiss albino mouse assessed as log reduction in bacterial burden in lungs at 26 mg/kg, po administered via gavage starting from 6 weeks post infection measured after 3 to 4 weeks co-treated with rifampicin; assay type: functional
[13] = tested on: Mycobacterium tuberculosis; test: Antibacterial activity against Mycobacterium tuberculosis H37Rv infected in Swiss albino mouse assessed as log reduction in bacterial burden in spleen at 26 mg/kg, po administered via gavage starting from 6 weeks post infection measured after 3 to 4 weeks co-treated with rifampicin; assay type: functional
[14] = tested on: Mycobacterium tuberculosis; test: Antibacterial activity against Mycobacterium tuberculosis H37Rv infected in Swiss albino mouse assessed as log reduction in bacterial burden in spleen at 26 mg/kg, po administered via gavage starting from 6 weeks post infection measured after 3 to 4 weeks co-treated with isoniazid; assay type: functional

Row | Compound | IC50 [1] [µg/mL] | MIC [2] [µg/mL] | Ratio [3] | MIC [4] [µg/mL] | Ratio [5] | Ratio [6] | inhibition at 72 h, 6.25 ug/ml [7] [%] | MIC [8] [µg/mL] | MIC [9] [µM] | selectivity ratio [10] | Activity [11] [log10CFU] | Activity [12] [log10CFU] | Activity [13] [log10CFU] | Activity [14] [log10CFU]
1 | N#Cc1ccc(Cn2cc(CN3c4ccccc4Sc4cc(/C=N/NC(=O)c5ccc(F)cc5)ccc43)nn2)cc1 | 758 (≈ 1350 µM) | 12.5 (≈ 22.3 µM) | 4 | 6.25 (≈ 11.2 µM) | 2 | 4 | 11.4 | 12.5 (≈ 22.3 µM) | 2.85 (≈ 1.59 µg/mL) | 66.3 |  |  |  | 
2 | N#Cc1ccc(Cn2cc(CN3c4ccccc4Sc4cc(/C=N/NC(=O)c5cnccn5)ccc43)nn2)cc1 | 2400 (≈ 4420 µM) | 100 (≈ 184 µM) | 4 | 50 (≈ 92 µM) | 2 | 4 | 12.3 | 50 (≈ 92 µM) | 2.94 (≈ 1.6 µg/mL) | 195 |  |  |  | 
3 | N#Cc1ccc(Cn2cc(CN3c4ccccc4Sc4cc(/C=N/NC(=O)c5ccc([N+](=O)[O-])cc5)ccc43)nn2)cc1 | 693 (≈ 1180 µM) | 50 (≈ 85.2 µM) | 4 | 25 (≈ 42.6 µM) | 2 | 4 | 7.57 | 50 (≈ 85.2 µM) | 2.72 (≈ 1.6 µg/mL) | 91.5 |  |  |  | 
4 | N#Cc1ccc(Cn2cc(CN3c4ccc(/C=N/NC(=O)c5ccncc5)cc4Sc4ccc(C(F)(F)F)cc43)nn2)cc1 | 1480 (≈ 2420 µM) | 100 (≈ 164 µM) | 4 | 50 (≈ 81.9 µM) | 2 | 4 | 7.14 | 50 (≈ 81.9 µM) | 2.62 (≈ 1.6 µg/mL) | 207 |  |  |  | 
5 | N#Cc1ccc(Cn2cc(CN3c4ccc(/C=N/NC(=O)c5cnccn5)cc4Sc4ccc(C(F)(F)F)cc43)nn2)cc1 | 2110 (≈ 3450 µM) | 100 (≈ 164 µM) | 4 | 50 (≈ 81.8 µM) | 2 | 4 | 11.6 | 50 (≈ 81.8 µM) | 2.61 (≈ 1.6 µg/mL) | 183 |  |  |  | 
6 | N#Cc1ccc(Cn2cc(CN3c4ccccc4Sc4cc(/C=N/NC(=O)c5ccncc5)ccc43)nn2)cc1 | 1300 (≈ 2390 µM) | 25 (≈ 46.1 µM) | 4 | 12.5 (≈ 23 µM) | 2 | 4 | 5.13 | 25 (≈ 46.1 µM) | 2.94 (≈ 1.6 µg/mL) | 253 |  |  |  | 
7 | N#Cc1ccc(Cn2cc(CN3c4ccccc4Sc4cc(/C=N/NC(=O)c5ccccc5)ccc43)nn2)cc1 | 434 (≈ 802 µM) | 25 (≈ 46.2 µM) | 4 | 12.5 (≈ 23.1 µM) | 2 | 4 | 13.4 | 25 (≈ 46.2 µM) | 2.95 (≈ 1.6 µg/mL) | 32.3 |  |  |  | 
8 | N#Cc1ccc(Cn2cc(CN3c4ccc(/C=N/NC(=O)c5cccnc5)cc4Sc4ccc(C(F)(F)F)cc43)nn2)cc1 | 845 (≈ 1380 µM) | 100 (≈ 164 µM) | 4 | 50 (≈ 81.9 µM) | 2 | 4 | 7.32 | 100 (≈ 164 µM) | 2.62 (≈ 1.6 µg/mL) | 115 |  |  |  | 
9 | CSc1ccc2c(c1)N(CCC1CCCCN1C)c1ccccc1S2 (centres undefined) [THIORIDAZINE] |  |  |  |  |  |  |  |  |  |  | >1 | >1 | >1 | >1
